In PMC9098866, “Signal transduction in light-oxygen-voltage receptors lacking the active-site glutamine” (Nature Communications, 2022):

Experiments:
[1] = biological target: T1, A. sativa phototropin 1 LOV2 (AsLOV2) (Avena sativa, UniProt O49003, Q513L); assay: X-ray crystal structure; format: binding; conditions: dark-adapted 0.90 A (7PGZ) and blue-light freeze-trapped 0.98 A (7PH0); light: thioadduct with C450 (covalent, modelled noncovalent); sodium acetate pH 4.6-5.0
T1 construct: gene NPH1-1; LOV2 domain residues 404-546 with flanking A'alpha and Jalpha helices; E. coli expression; N-terminal His6-SUMO tag cut by Senp2, leaving N-terminal GEF extension

[2] = biological target: T2, A. sativa phototropin 1 LOV2 (AsLOV2) (Avena sativa, UniProt O49003); assay: X-ray crystal structure; format: binding; conditions: dark-adapted 1.00 A (7PGX) and blue-light freeze-trapped 1.09 A (7PGY); light: thioadduct with C450 (covalent, not seen in density, modelled noncovalent); sodium acetate pH 4.6-5.0
T2 construct: gene NPH1-1; LOV2 domain residues 404-546 with flanking A'alpha and Jalpha helices; E. coli expression; N-terminal His6-SUMO tag cut by Senp2, leaving N-terminal GEF extension
T2 sequence (O49003 entry or part of it): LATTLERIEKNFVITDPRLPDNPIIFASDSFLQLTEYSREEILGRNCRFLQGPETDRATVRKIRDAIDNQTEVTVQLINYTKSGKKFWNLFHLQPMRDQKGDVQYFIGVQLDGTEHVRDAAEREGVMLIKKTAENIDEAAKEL

T1 sequence (O49003 entry or part of it Q513L): as the sequence (O49003 entry or part of it) above, with Q110L counted along it

For `Cc1cc2nc3c(=O)[nH]c(=O)nc-3n(C[C@H](O)[C@H](O)[C@H](O)COP(=O)(O)O)c2cc1C` [flavin mononucleotide], the X-ray crystal structure [1] was “the cofactors were generally modeled as noncovalently bound oxidized flavin mononucleotides” and the X-ray crystal structure [2] was 7pgx (wild-type, dark), 7pgy (wild-type, light), 7pgz (Q513L, dark), and 7ph0 (Q513L, light).
